Experimental data published in ChEMBL document CHEMBL1201862, “PubChem BioAssay data set” (2004).
Blank lines part the entries; values can stand above or below the molecule they belong to. Activity calls are given as the source filed them.

Tests used:
[1] = target: Prothrombin (Homo sapiens, UniProt P00734); assay: Thrombin 1536 HTS Dose Response Confirmation. [Related pubchem assays: 1046 (Thrombin 1536 HTS; hits were confirmed in this assay)]; assay type: functional
[2] = target: Glyceraldehyde-3-phosphate dehydrogenase (Homo sapiens, UniProt P04406)
Chain of Glyceraldehyde-3-phosphate dehydrogenase (P04406 whole entry): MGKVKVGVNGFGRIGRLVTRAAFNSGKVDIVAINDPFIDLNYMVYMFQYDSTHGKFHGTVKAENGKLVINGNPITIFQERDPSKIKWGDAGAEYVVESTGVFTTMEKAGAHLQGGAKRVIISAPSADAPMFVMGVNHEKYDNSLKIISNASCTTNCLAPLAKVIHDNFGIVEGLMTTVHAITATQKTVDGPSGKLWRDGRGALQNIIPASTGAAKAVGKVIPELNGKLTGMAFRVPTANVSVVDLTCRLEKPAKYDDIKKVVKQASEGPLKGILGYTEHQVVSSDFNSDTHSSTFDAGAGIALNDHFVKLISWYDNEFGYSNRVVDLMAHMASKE

[3] = viability loss of HPDE-C7K cells – cell-based, fluorescence, HTS, primary screen (AID 431); assay type: functional; details: Homo sapiens
[4] = HPDE-C7 pancreatic duct cell viability loss – fluorescence, HTS (AID 430); assay type: functional, cell-based; details: Homo sapiens
[5] = NIH3T3 cell viability loss – ATP luminescence, mouse fibroblasts, counter-screen, dose response (AID 2010); assay type: functional, cell-based;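 note: cells exposed to compound for about 90 hours before reading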
[6] = cells
[7] = Trypanosoma cruzi growth suppression in host cells – NIH3T3 host cells, beta-gal luminescence, confirmation (AID 2044); assay type: functional, cell-based;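 note: intracellular parasites grown in NIH/3T3 mouse fibroblasts as host cells; luminescent beta-galactosidase reporter signal from transgenic T. cruzi replicating inside host cells; inhibitors lower the luminescence signal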
[8] = target: T1, Microphthalmia-associated transcription factor (Homo sapiens, UniProt O75030); assay: reducers of TRPM1 reporter luminescence, concentration series – cell-based, SK-MEL-5, cherry-picked, set 3, MITF inhibitor project, dose response (AID 493073); assay type: functional;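 note: SK-MEL-5 melanoma cells with luciferase driven by the MITF target TRPM1 promoter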
T1 sequence (O75030 whole entry): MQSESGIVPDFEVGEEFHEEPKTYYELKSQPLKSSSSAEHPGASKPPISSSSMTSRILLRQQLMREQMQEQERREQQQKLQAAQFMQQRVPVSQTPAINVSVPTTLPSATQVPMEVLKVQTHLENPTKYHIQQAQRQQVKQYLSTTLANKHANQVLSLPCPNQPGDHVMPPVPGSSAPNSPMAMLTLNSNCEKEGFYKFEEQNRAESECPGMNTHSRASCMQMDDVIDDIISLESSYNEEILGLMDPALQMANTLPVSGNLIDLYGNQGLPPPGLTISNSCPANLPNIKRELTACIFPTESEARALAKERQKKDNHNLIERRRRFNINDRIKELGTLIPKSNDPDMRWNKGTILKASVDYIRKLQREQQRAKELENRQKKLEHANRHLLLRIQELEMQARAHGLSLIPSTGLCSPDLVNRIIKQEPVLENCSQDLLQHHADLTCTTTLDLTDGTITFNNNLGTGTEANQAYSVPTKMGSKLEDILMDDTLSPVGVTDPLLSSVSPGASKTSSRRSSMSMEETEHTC

[9] = system: HEK293; assay: NOD2 signaling inhibitors in MDP-stimulated cells, cell-based, uHTS, luminescence (AID 2001); assay type: functional; details: Homo sapiens
[10] = system: HEK293; assay: cells; assay type: functional, cell-based; details: Homo sapiens
[11] = system: HEK293; assay: cells; assay type: functional, cell-based; details: Homo sapiens; remark: listed apart in the source
[12] = system: HEK293; assay: cells; assay type: functional, cell-based; details: Homo sapiens; remark: listed apart in the source
[13] = system: HEK293; assay: inhibition of NOD1-driven NF-kB reporter – cell-based, luminescence, uHTS, primary screen (AID 1578); assay type: functional; details: Homo sapiens
[14] = NIH-3T3 fibroblast cytotoxicity, dose response, cytotoxicity control, cell-based, fluorescence, Alamar Blue, secondary assay (AID 2327); assay type: functional;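 note: NIH-3T3 mouse fibroblasts cultured with fluconazole at 8 µg/mL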
[15] = target: Nucleotide-binding oligomerization domain-containing protein 2 (Homo sapiens, UniProt Q9HC29); assay: inhibition of NOD2-driven NF-kB reporter – cell-based, luminescence, uHTS, HEK293 (AID 1566); assay type: functional
Chain of Nucleotide-binding oligomerization domain-containing protein 2 (Q9HC29 whole entry, the tested form may be a part): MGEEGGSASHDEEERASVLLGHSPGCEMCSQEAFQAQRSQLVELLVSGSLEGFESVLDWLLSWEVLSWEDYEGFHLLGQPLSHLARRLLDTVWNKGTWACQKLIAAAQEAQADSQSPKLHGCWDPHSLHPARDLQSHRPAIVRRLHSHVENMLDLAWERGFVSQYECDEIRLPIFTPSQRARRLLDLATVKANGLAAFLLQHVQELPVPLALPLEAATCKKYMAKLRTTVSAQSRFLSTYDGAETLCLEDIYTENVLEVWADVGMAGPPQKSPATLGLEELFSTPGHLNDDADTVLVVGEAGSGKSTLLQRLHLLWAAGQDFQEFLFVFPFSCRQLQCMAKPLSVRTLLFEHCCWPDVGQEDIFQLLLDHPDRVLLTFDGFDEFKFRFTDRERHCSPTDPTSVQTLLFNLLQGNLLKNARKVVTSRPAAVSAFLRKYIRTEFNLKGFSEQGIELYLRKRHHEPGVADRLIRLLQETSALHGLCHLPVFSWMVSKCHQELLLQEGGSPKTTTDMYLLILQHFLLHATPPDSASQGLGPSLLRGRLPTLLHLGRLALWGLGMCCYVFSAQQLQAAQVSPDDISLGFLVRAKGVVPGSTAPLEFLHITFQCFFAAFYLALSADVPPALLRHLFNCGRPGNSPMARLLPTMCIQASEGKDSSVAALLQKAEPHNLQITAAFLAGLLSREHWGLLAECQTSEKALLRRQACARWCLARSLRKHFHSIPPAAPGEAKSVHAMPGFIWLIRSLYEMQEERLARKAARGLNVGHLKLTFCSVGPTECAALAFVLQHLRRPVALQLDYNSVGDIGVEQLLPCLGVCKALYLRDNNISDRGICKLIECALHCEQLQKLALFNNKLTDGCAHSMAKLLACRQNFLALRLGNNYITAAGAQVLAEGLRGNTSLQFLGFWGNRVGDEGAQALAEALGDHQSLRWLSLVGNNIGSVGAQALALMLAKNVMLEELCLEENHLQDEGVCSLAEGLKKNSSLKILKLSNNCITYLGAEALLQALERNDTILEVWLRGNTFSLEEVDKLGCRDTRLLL

[16] = fluconazole-exposed Candida albicans growth modulators – fluorescence, retest, confirmation (AID 2467); assay type: functional, cell-based
[17] = HEK-293T viability loss after treatment – luminescence, T-cell screen hits, cytotoxicity control for TCR NF-kB inhibitor project, dose response (AID 489026); assay type: functional, cell-based;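 note: cells exposed to compound about 14 hours before the viability readout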
[18] = target: T2, Estrogen receptor (Homo sapiens, UniProt P03372);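 note: potency for inhibiting coactivator peptide recruitment to the receptor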
T2 sequence (P03372 whole entry): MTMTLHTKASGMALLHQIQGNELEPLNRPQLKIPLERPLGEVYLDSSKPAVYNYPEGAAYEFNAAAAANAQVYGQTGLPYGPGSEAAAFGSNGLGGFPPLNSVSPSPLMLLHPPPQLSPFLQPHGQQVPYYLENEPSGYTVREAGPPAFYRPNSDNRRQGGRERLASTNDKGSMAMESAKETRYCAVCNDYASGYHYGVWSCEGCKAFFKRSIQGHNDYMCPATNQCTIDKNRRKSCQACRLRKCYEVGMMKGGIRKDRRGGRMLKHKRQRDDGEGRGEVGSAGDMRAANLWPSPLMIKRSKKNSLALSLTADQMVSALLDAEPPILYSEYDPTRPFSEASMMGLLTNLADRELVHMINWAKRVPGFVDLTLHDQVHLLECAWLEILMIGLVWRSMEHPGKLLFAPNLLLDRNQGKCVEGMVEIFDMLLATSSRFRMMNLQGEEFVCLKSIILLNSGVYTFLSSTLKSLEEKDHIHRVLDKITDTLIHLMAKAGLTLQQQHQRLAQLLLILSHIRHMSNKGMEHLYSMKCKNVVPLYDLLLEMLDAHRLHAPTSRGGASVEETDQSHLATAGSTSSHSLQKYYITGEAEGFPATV

[19] = target: T3, Carboxy-terminal domain RNA polymerase II polypeptide A small phosphatase 1 (Homo sapiens, UniProt Q9GZU7); assay: CTDSP1 inhibitors, concentration-response, biochemical, absorbance readout, ultra-high-throughput screen actives (AID 540297); assay type: functional
T3 sequence (Q9GZU7 whole entry): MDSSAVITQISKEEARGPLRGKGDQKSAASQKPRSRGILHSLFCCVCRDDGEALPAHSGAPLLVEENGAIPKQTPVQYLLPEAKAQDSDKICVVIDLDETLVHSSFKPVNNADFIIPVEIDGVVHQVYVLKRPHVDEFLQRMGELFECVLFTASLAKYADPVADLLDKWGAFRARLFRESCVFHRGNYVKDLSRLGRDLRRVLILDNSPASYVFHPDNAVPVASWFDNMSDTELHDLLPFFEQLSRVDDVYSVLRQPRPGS

[20] = target: T4, Mannose-6-phosphate isomerase (Homo sapiens, UniProt P34949); assay: MPI inhibition at elevated mannose 6-phosphate – biochemical, fluorescence intensity, high mannose 6-phosphate, primary screen (AID 1220)
T4 sequence (P34949 whole entry): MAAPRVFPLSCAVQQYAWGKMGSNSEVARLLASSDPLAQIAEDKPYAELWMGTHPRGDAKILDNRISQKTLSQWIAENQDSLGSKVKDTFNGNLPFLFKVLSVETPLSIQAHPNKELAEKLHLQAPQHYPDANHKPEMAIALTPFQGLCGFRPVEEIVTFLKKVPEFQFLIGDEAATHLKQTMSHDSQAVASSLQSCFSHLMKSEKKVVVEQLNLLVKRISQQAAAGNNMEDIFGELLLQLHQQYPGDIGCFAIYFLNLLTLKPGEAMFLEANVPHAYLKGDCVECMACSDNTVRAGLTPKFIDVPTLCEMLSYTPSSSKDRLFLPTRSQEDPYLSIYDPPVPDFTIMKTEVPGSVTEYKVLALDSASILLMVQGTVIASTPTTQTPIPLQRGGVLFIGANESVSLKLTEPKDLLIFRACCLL

IC50 [1]: > 50 µM (not active)
Structure (SMILES): CCC(=O)Nc1cccc(C(=O)OCc2cccc([N+](=O)[O-])c2)c1

IC50 [2]: > 50 µM (inconclusive)
Structure (SMILES): Cc1cccc(N2C(=O)C(Cl)=C(N3CCN[C@H](C)C3)C2=O)c1

IC50 [1]: > 50 µM (not active)
Structure (SMILES): CC(=O)c1ccc(S(=O)(=O)Nc2ccc(-c3cn4c(n3)SCC4)cc2)cc1

Structure (SMILES): CCOC(=O)C1=C(N)c2ccccc2CC1C(C)C (configuration not stated)
EC50 [3]: > 20 µM (not active)
EC50 [4]: > 20 µM (not active)

Structure (SMILES): Cc1ccc2c(CN3CCN(Cc4ccccc4)CC3)cc(=O)oc2c1
EC50 [5]: > 60 µM (not active)
EC50 [6]: 0.049 µM (active)
EC50 [7]: < 0.1 µM (active)

Structure (SMILES): O=C(CCl)N1c2ccccc2SCC1c1ccccc1 (configuration not stated)
AC50 [8]: 4.2 µM (active)
IC50 [9]: 8.37 µM (active)
IC50 [10]: > 20 µM (inactive)
IC50 [11]: 5.49 µM (active)
IC50 [12]: > 20 µM (inactive)
EC50 [13]: 11.5 µM (active)
EC50 [14]: 7.57 µM (inconclusive)
EC50 [15]: > 20 µM (inactive)
EC50 [16]: > 38 µM (not active)

Structure (SMILES): COc1cc(C(=O)OCCc2cc3ccccc3c(=O)o2)cc(OC)c1OC
IC50 [17]: 69.5 µM (inactive)

IC50 [2]: > 100 µM (not active)
Structure (SMILES): COc1cc(/C=C2/SC(=S)NC2=O)cc(Cl)c1OCc1cccc2ccccc12

IC50 [18]: 25.2 µM (active)
IC50 [19]: 17.8 µM (active)
Structure (SMILES): Cn1c(SCc2cc(=O)n3cc(Br)ccc3n2)nnc1C1COc2ccccc2O1 (configuration not stated)

IC50 [20]: 23.3 µM (active)
Structure (SMILES): Oc1ccc2ccccc2c1/C=N\C1CCCCC1
